Source: patent US20080207751A1, “Sulindac Derivatives for Treatment of Cancer” (Sulfidris s.r.l., priority 2005, published 2008)
Like-named read-outs stand apart in the source and are kept apart here.

Key:
[1] = tested on: Caco 2 cells; assay: Anti-proliferative activity in Caco 2 cells; format: cell-based
Method: In order to analyze sulindac derivatives in combination therapies for treatment of colon cancer, the compound of example 4 was tested in Caco 2 cell lines comparatively with other known therapeutic agents at different concentrations.
The results of the treatment with 5-FU, celecoxib and docetaxel in Caco 2 cell are depicted in the Table 3 below reported.
In another experiment the compound of example 4 at IC50 concentration was incubated with submaximal concentrations of the anti-tumoral standard agents.

[2] = tested on: Aberrant crypt foci (ACF); assay: Aberrant crypt foci (ACF) induced by 1,2-dimethylhydrazine in rats; format: in vivo; settings: DMH-induced ACF, Sprague-Dawley rats; equivalent anti-inflammatory doses, twice daily orogastric gavage for 3 weeks
Method: Aberrant crypt foci (ACF) were induced in Sprague-Dawley rats by using 1,2-dimethylhydrazine (DMH). Test agents or vehicle were then administered for 3 weeks, twice daily through orogastric gavage.
At the end of this period, the number and multiplicity of ACF were determined.

[3] = Five-day oral safety study in rats (deaths, gastrointestinal ulcers at autopsy); format: in vivo; settings: male rats, once daily by gavage for five days; sulindac sulfoxide 20 mg/kg, compound example 1 36 mg/kg
Method: Thirty male rats (150-200 g) were divided into three groups of 10 animals/group and treated with vehicle, sulindac sulfoxide (20 mg/kg) and the compound example 1 (36 mg/kg) for five days once daily by gavage.
At the fifth day survival animals were sacrificed 6 hr after the treatment by an overdose of ether, and autopsied to detect any pathological changes, particularly in the gastrointestinal tract.

Row | Structure (SMILES) | IC50 ([1]; Homo sapiens) | reduction of the number of ACF [2] | further results
1 | Cc1ccc(-c2cc(C(F)(F)F)nn2-c2ccc(S(N)(=O)=O)cc2)cc1 [celecoxib] | 60 µM | 22% | 
2 | CC1=C(CC(=O)O)c2cc(F)ccc2/C1=C\c1ccc([S+](C)[O-])cc1 (centres unmarked) [Sulindac sulfoxide, (Z)-5-Fluoro-2-methyl-1-[[4-(methylsulfinyl)phenyl]methylene]-1H-indene-3-acetic acid] |  | 46% | % deaths [3]: 70%; % gastrontestinal ulcers [3]: 100%
3 | CC(=O)O[C@@]12CO[C@@H]1C[C@H](O)[C@@]1(C)C(=O)[C@H](O)C3=C(C)[C@@H](OC(=O)[C@H](O)[C@@H](NC(=O)OC(C)(C)C)c4ccccc4)C[C@@](O)([C@@H](OC(=O)c4ccccc4)[C@H]21)C3(C)C [Docetaxel] | 0.005 µM |  | 
4 | CC1=C(CC(=O)OCCSS(C)(=O)=O)c2cc(F)ccc2/C1=C\c1ccc([S+](C)[O-])cc1 (centres unmarked) [Example 4, (Z)-5-Fluoro-2-methyl-1-[[4-(methylsulfinyl)phenyl]methylene]-1H-indene-3-acetic acid 2-methanesulfonylsulfanylethyl ester] | 55 µM |  | anti-proliferative activity in combination with anti-tumoral standard agents ([1]; compound at IC50 concentration incubated with submaximal concentrations of standard agents): marked potentiation
5 | CC1=C(CC(=O)Oc2ccc(-c3cc(=S)ss3)cc2)c2cc(F)ccc2/C1=C\c1ccc(S(C)(=O)=O)cc1 [Example 3, (Z)-5-Fluoro-2-methyl-1-[[4-(methylsulfone)phenyl]methylene]-1H-indene-3-acetic acid 4-(thioxo-5H-[1,2]dithiol-3-yl)-phenyl ester] |  | 45% | 
6 | O=c1[nH]cc(F)c(=O)[nH]1 [Example 5-FU] |  |  | IC50 [1]: 28 µM
7 | CC1=C(CC(=O)Oc2ccc(-c3cc(=S)ss3)cc2)c2cc(F)ccc2/C1=C\c1ccc([S+](C)[O-])cc1 (centres unmarked) [Example 1, (Z)-5-Fluoro-2-methyl-1-[[4-(methylsulfinyl)phenyl]methylene]-1H-indene-3-acetic acid 4-(thioxo-5H-1-[1,2]dithiol-3-yl)-phenyl ester] |  |  | % deaths [3]: 0%; % gastrontestinal ulcers [3]: 10%
8 | CC1=C(CC(=O)OCCSS(C)(=O)=O)c2cc(F)ccc2/C1=C\c1ccc(S(C)(=O)=O)cc1 [Example 8, (Z)-5-Fluoro-2-methyl-1-[[4-(methylsulfone)phenyl]methylene]-1H-indene-3-acetic acid 2-methanesulfonylsulfanylethyl ester] |  | 60% | 
9 | CC1=C(CC(=O)O)c2cc(F)ccc2/C1=C\c1ccc(S(C)(=O)=O)cc1 [sulindac sulfone, (Z)-5-Fluoro-2-methyl-1-[[4-(methylsulfone)phenyl]methylene]-1H-indene-3-acetic acid] |  | 36% | 
